Laboratory results published in patent US6586613B1, “Substituted tetrahydronaphthaline and analogous compounds” (Bayer Aktiengellschaft, priority 1997, dated 2003).

Tests used:
transgenic hCETP mice = experiment: In vivo activity in transgenic hCETP mice (lipoproteins and triglycerides in serum); settings: 30 ppm via the feed, after one week
Description: In vivo Activity in Transgenic hCETP Mice
The substances to be tested were administered to transgenic mice, which were bred in our own laboratory (Dinchuck, Hart, Gonzalez, Karmann, Schmidt, Wirak; BBA (1995), 1295, 301), via the feed. Prior to the beginning of the experiment, blood samples were taken retro-orbitally from the mice to determine cholesterol and triglycerides in the serum. The serum was obtained as described above for hamsters by incubation at 4° C. overnight and subsequent centrifugation at 6000×g. After one week, blood samples were again taken from the mice to determine lipoproteins and triglycerides. The change of the measured parameters are expressed as a change in percent based on the initial value.

CETP activity = experiment: Ex vivo activity: CETP activity in serum of treated hamsters; settings: Syrian gold hamsters; for ED50 for ex vivo activity: CETP activity in serum; for % inhibition at 3 mg/kg: ex vivo CETP activity in serum
Description: Ex vivo Activity of the Compounds According to the Invention
Syrian gold hamsters, which have been bred in our own laboratory, are anaesthetized after 24 hours of fasting (0.8 mg/kg of atropine, 0.8 mg/kg of Ketavet® s.c., 30′ later 50 mg/kg of nembutal i.p.). The jugular vein is subsequently exposed and cannulated. The test substance is dissolved in a suitable solvent (usually adalate placebo solution: 60 g of glycerol, 100 ml of H2O, ad 1000 ml PEG-400) and administered to the animals via a PE catheter, which is introduced into the jugular vein. The same volume of solvent without test substance is administered to the control animals. The vein is subsequently tied off and the wound is closed.
The test substances can also be administered p.o. by dissolving the substances in DMSO and suspending them in 0.5% tylose and administering them using a pharyngeal tube. Identical volumes of solvent without test substance are administered to the control animals.
At different intervals—up to 24 hours after the administration—blood samples are taken from the animals by puncture of the retro-orbital venous plexus (approximately 250 μl). Coagulation is completed by incubation at 4° C. overnight, and the samples are subsequently centrifuged at 6000×g for 10 minutes. The CETP activity is determined in the resulting serum using the modified CETP test. The transfer of ^3H-cholesterol ester from HD-lipoproteins to biotinylated LD-lipoproteins is measured as described above for the CETP test.
The reaction is terminated by addition of Streptavidin-SPA® beads (Amersham), and the transferred radioactivity is directly determined in a liquid scintillation counter.
The test protocol is carried out as described under “CETP test”. However, to test the sera, 10 μl of CETP are replaced by 10 μl of the appropriate serum samples. Corresponding incubations of sera of untreated animals serve as controls.
The activity that is transferred in the control experiments using control sera is classified as 100% transfer. The substance concentration at which this transfer is reduced by half is stated as the ED50 value.

Syrian gold hamsters = experiment: In vivo activity: HDL increase after oral administration to hamsters; settings: perorally
Description: In vivo Activity of the Compounds According to the Invention
In experiments for assessing the oral activity on lipoproteins and triglycerides, test substance, dissolved in DMSO and suspended in 0.5% tylose, is administered perorally by means of a pharyngeal tube to Syrian gold hamsters which have been bred in our own laboratory. To determine the CETP activity, blood samples (approximately 250 μl) are taken by retro-orbital puncture prior to the start of the experiment. The test substances are subsequently administered perorally using a pharyngeal tube. Identical volumes of solvent without test substance are administered to the control animals. […]
Coagulation is completed by incubation at 4° C. overnight, and the samples are subsequently centrifuged at 6000×g for 10 minutes. The content of cholesterol and triglycerides in the resulting serum is assessed using modified commercially available enzyme tests (cholesterol enzymatic 14366 Merck, triglycerides 14364 Merck). […]
100 μl of serum dilution and 100 μl of test substance are transferred into 96-well-plates and incubated at room temperature for 10 minutes. The optical density is subsequently determined at a wavelength of 492 nm using an automatic plate reader.
The triglyceride and cholesterol concentrations of the samples are determined with the aid of a standard curve measured in parallel. […]

[1] = molecular target: T1, cholesterol ester transfer protein (CETP) (Homo sapiens, UniProt P11597); experiment: CETP inhibition test (transfer of 3H-cholesterol ester from HDL to biotinylated LDL, SPA); format: biochemical; settings: CETP partially purified from human plasma; 37° C., 18 h
T1 construct: CETP is obtained in partially purified form from human plasma by differential centrifugation and column chromatography; from tissue; host or cells: human plasma
T1 sequence (P11597 18-493): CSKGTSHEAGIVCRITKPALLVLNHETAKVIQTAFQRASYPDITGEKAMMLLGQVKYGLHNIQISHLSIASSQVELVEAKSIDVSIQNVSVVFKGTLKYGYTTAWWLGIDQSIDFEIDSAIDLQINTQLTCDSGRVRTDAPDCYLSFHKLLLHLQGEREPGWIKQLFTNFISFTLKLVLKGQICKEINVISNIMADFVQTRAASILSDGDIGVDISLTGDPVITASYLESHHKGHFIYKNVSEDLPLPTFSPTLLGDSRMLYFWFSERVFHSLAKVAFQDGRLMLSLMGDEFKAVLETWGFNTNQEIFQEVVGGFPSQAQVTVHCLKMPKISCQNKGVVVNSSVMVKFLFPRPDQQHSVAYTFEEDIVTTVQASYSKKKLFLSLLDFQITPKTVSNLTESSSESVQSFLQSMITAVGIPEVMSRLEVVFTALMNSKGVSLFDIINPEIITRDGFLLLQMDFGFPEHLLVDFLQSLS
Description: CETP is obtained in partially purified form from human plasma by differential centrifugation and column chromatography and used for the test. For this purpose, human plasma is adjusted to a density of 1.21 g per ml using NaBr and centrifuged at 50,000 rpm at 4° C. for 18 h. The bottom fraction (d>1.21 g/ml) is applied to a Sephadex®Phenyl-Sepharose 4B (Pharmacia) column, washed with […]/0.001 M TrisHCl pH 7.4 and subsequently eluted using dist. water. The CETP-active fractions are pooled, dialysed against 50 mM Na-acetate pH 4.5 and applied to a CM-Sepharose® (Pharmacia) column. Elution is subsequently carried out using a linear gradient (0-1 M NaCl). The pooled CETP fractions are dialysed against 10 mM TrisHCl pH 7.4 and subsequently purified further by chromatography over a Mono Q® column (Pharmacia).
Preparation of Radioactively Labelled HDL
50 ml of fresh human EDTA plasma is adjusted to a density of 1.12 using NaBr and centrifuged at 4° C. in a Ty 65 rotor at 50,000 rpm for 18 h. The upper phase is used to obtain cold LDL. […]
To assess the CETP activity, the transfer of ^3H-cholesterol ester from human HD-lipoproteins to biotinylated LD-lipoproteins is measured.
The reaction is terminated by addition of Streptavidin-SPA® beads (Amersham) and the transferred radioactivity is directly measured in a liquid scintillation counter. […]

IC50 [1] [nM] | SMILES | HDL, change in percent based on the initial value (transgenic hCETP mice) | LDL, change in percent based on the initial value (transgenic hCETP mice) [%] | Triglycerides, change in percent based on the initial value (transgenic hCETP mice) [%] | ED50 for ex vivo activity (CETP activity) [mg/kg] | % inhibition at 3 mg/kg (CETP activity) [%] | % HDL increase (Syrian gold hamsters; dose 2 × 0.3 mg/kg) | % HDL increase (Syrian gold hamsters; dose 2 × 1 mg/kg)
 | CC(C)c1cc2c(c(-c3ccc(F)cc3)c1[C@@H](F)c1ccc(C(F)(F)F)cc1)[C@@H](O)CC1(CCC1)C2 [Example 15, (S)-8-Hydroxy-1-(4-fluorophenyl)-2-[(S)-fluoro-(4-trifluoromethyl-phenyl)-methyl]-3-isopropyl-6-spiro-cyclobutyl-5,6,7,8-tetrahydronaphthalene] | +60% | −18 | −15 |  |  |  | 
2.7 | O[C@H]1CC2(CCC2)Cc2cc(C3CCCC3)c([C@@H](F)c3ccc(C(F)(F)F)cc3)c(-c3ccc(F)cc3)c21 [Example 31] |  |  |  | <0.3 | 72.3 | +19% | 
3 | CC(C)c1cc2c(c(-c3ccc(F)cc3)c1[C@@H](F)c1ccc(C(F)(F)F)cc1)[C@@H](O)CC(C)(C)C2 [Example 25] |  |  |  | <0.3 | 83.1 |  | +15%
